The results in this text go back to patent US10004732B2 (Novartis AG, priority 2014, dated 2018).

The target in data set [1] is T1, PI 3-kinase gamma (Homo sapiens, UniProt P48736). Kind of data set: TR-FRET Adapta assay, assay E. In kind it is biochemical. Particulars: read-out: Assay E PI3Kγ IC50.
Data set [2] concerns the target T2, PI 3-kinase alpha (Homo sapiens, UniProt P42336). Briefly: Kinase Glo Luminescent Kinase Assay (Kglo), assay A. The class given is biochemical. As to conditions: read-out: Assay A PI3Kα IC50.
Target sequence in this assay (P42336 whole entry): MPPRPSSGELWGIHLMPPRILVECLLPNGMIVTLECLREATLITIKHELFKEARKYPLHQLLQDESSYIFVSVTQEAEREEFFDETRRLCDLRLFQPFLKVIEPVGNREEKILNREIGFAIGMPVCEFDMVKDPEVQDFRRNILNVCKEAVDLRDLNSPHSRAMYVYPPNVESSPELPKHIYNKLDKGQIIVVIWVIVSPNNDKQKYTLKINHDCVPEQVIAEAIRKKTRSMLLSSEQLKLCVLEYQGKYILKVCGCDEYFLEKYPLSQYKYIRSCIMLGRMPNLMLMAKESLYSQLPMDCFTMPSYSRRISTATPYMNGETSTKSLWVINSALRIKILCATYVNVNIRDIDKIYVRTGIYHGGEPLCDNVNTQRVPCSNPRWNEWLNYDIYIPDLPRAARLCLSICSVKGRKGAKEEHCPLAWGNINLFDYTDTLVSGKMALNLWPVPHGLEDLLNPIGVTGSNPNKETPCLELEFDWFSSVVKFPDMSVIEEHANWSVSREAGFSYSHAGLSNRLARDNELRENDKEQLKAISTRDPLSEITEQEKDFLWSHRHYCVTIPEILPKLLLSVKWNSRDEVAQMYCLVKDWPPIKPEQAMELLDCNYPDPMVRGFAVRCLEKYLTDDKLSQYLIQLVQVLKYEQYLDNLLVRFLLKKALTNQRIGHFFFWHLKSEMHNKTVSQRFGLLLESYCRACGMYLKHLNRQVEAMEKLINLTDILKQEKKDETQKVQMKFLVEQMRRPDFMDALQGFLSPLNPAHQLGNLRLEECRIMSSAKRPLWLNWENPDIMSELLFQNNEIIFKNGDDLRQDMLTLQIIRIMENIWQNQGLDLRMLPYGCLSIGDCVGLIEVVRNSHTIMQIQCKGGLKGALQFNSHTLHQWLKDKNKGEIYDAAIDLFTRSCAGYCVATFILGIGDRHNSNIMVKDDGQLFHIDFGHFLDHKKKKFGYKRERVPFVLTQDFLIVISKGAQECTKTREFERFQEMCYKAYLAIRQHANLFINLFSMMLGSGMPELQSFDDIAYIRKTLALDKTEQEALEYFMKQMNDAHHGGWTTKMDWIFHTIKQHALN
Method: Kinase Glo Luminescent Kinase Assay (Kglo) for Pb 3-Kinase Alpha (A), Pb 3-Kinase Beta (B), Vps34 (C), Pb 4-Kinase Beta (D)
The Kinase Glo Luminescent Kinase Assay (Promega, Madison/Wis., USA) is a homogeneous HTS method of measuring kinase activity by quantifying the amount of ATP remaining in solution following a kinase reaction.
L-α-phosphatidylinositol (PI), provided as 10 mg/ml solution in methanol, was transferred into a glass tube and dried under a nitrogen beam. It was then resuspended in 3% OctylGlucoside (1-0-n-octyl-beta-D-glucopyranoside) by vortexing and stored at 4° C. 5 μL of a mix of PI/OctylGlucoside with the PI 3-kinase alpha and PI 3-kinase beta subtypes, or Vps34 or PI 4-kinase beta were added. Kinase reactions were started by the addition of 5 μl of an ATP-mix containing in a final volume 10 μL 10 mM TRIS-HCl pH 7.5, 3 mM MgCl2, 50 mM NaCl, 0.05% CHAPS, 1 mM DTT and 1 μM ATP at room temperature.
All fits were performed with the program XLfit4 (ID Business Solutions, Guildford, UK).
In a further data set the target is PI 4-kinase beta (Homo sapiens, UniProt Q9UBF8). Kind of data set: Kinase Glo Luminescent Kinase Assay (Kglo), assay D. The class given is biochemical. Particulars: read-out: Assay D PI4Kβ IC50. On the technique in general: In Kinase-Glo more light means more ATP remaining.
Data set [3] is described as follows: Microsomal clearance assay (M). Particulars: intrinsic clearance in rat liver microsomes.
Method: The experiments were performed in 96-well glass plates at 37° C. on an automated Tecan EVO platform. Test compounds at a concentration of 10 mM in pure DMSO were diluted 1:1000 in water to 10 μM. […] Reactions were initiated by the addition of 150 μL of a cofactor solution containing 2 mM NADPH.
Data set [4] concerns the target T2, PI 3-kinase alpha. Kind of data set: Cellular assay H2, p-AKT (Ser473) in Rat-1 cells, HTRF format. The class given is cell-based. Particulars: asterisked data: version H2 (HTRF format), read-out: Assay H PI3Kα IC50. On the technique in general: TR-FRET usually uses a lanthanide donor and a delayed reading to cut background.
Target sequence in this assay (P42336 whole entry): as above
Target sequence in this assay (Q63787 whole entry partner): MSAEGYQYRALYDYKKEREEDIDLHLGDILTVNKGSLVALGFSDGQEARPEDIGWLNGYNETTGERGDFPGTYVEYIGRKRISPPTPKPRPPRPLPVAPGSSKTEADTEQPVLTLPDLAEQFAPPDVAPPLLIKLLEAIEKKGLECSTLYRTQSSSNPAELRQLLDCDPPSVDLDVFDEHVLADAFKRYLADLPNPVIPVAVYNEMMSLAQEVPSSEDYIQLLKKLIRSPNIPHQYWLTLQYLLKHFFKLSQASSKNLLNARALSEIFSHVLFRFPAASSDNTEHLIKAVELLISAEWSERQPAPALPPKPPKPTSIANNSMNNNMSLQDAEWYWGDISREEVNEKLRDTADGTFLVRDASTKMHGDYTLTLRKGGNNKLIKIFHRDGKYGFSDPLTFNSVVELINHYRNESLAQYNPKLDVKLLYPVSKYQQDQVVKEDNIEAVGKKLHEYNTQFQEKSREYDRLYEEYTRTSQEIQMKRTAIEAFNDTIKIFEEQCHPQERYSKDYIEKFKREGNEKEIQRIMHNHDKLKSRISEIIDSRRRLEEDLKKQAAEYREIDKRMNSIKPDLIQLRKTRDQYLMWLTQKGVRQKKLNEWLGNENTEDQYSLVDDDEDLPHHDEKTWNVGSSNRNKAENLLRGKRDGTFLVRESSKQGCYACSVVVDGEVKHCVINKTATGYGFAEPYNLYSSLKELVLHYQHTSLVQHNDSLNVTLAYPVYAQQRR
Method: (§1) Cellular Assays for PI 3-Kinase Alpha (H2), Beta (12) and Delta (J2): HTRF (Homogeneous Time Resolved Fluorescence) Format
(§2) All cell lines were cultivated in complete growth medium (DMEM high glucose GlutaMAX™ Pyruvate, 10% (v/v) fetal bovine serum, 0.1 mM MEM NEAA, 25 mM HEPES, puromycin 10 μg/mL, 100 U/ml Penicillin, 100 μg/ml Streptomycin) to 90% confluency at 37° C./5% CO2/90% humidity in a humidified CO2 incubator and were split twice a week.
(§3) Semi-automated preparation of cell lysates: For low (inhibited) controls, 0.9 mM NVP-BGT226-AF-1 in 90% (v/v) DMSO was added to the compound master plate. For compound testing, the cells were seeded at a density of 4000 (Rat-1_PI3Kdelta), 8000 (Rat-1_PI3Kalpha), or 6500 (Rat-1_PI3Kbeta) cells in 30 μl complete growth medium into cell culture treated 384-well plates and were grown at 37° C./5% CO2/90% humidity for 24 h. 10 μl of the compound predilutions were transferred to the cells.
For the next data set, the target named is Vps34 (Homo sapiens, UniProt Q8NEB9). Briefly: Kinase Glo Luminescent Kinase Assay (Kglo), assay C. In kind it is biochemical. As to conditions: read-out: Assay C VPS34 IC50.
Data set [5] addresses T2, PI 3-kinase alpha. Briefly: Cellular assay H1, p-Akt (S473) in Rat-1 cells, Surefire format. The class given is cell-based. Particulars: non-asterisked data: version H1 (Surefire format), Rat-1 cells; read-out: Assay H PI3Kα IC50.
Target sequence in this assay (P42336 whole entry): as the sequence (P42336 whole entry) above
Target sequence in this assay (Q63787 whole entry partner): as the sequence (Q63787 whole entry partner) above
Data set [6] has as its target T3, PI 3-kinase delta (Homo sapiens, UniProt O00329). Briefly: Cellular assay J1, p-Akt (S473) in Rat-1 cells, Surefire format. Particulars: non-asterisked data: version J1 (Surefire format), Rat-1 cells; read-out: Assay J PI3Kδ IC50. In kind it is cell-based.
Target sequence in this assay (O00329 whole entry): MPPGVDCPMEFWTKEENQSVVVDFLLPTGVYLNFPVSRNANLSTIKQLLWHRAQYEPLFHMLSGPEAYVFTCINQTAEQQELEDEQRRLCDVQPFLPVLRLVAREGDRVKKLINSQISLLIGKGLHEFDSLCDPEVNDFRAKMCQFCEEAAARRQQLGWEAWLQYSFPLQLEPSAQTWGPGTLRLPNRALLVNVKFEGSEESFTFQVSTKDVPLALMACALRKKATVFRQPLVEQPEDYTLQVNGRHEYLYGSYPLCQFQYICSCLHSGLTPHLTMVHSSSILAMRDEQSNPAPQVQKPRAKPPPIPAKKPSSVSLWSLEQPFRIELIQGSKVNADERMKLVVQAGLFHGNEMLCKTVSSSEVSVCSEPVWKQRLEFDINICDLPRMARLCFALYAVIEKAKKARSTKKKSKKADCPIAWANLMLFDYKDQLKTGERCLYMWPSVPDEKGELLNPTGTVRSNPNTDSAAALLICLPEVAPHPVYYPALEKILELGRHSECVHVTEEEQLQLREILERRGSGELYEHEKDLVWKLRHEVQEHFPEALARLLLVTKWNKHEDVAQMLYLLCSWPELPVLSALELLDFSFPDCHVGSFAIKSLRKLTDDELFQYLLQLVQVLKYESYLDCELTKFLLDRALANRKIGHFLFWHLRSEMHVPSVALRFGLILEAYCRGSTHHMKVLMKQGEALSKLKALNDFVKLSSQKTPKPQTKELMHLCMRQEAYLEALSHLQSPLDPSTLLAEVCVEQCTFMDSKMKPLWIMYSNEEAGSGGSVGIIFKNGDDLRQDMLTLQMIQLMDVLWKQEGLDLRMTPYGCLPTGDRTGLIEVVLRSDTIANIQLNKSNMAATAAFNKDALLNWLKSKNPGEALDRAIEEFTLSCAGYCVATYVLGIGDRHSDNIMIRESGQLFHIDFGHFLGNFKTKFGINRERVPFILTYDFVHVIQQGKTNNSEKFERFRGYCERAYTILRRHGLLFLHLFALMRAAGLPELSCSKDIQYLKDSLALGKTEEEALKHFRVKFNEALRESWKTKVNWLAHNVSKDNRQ
Target sequence in this assay (Q63787 whole entry partner): as the sequence (Q63787 whole entry partner) above
The target of data set [7] is T1, PI 3-kinase gamma. Kind of data set: Cellular U937 AKT assay K1 (MSD). The class given is cell-based. As to conditions: U937 cells, K1 format; read-out: Assay K1 PI3Kγ IC50.
Data set [8] deals with T3, PI 3-kinase delta. Kind of data set: TR-FRET Adapta assay, assay F. Particulars: read-out: Assay F PI3Kδ IC50.
Target sequence in this assay (O00329 whole entry): as the sequence (O00329 whole entry) above
Target sequence in this assay (P27986 461-568 partner): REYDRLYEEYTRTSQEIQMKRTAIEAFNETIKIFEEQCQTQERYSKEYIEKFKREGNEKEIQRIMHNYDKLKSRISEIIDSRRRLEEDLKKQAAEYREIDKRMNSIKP
For data set [9], the target named is T4, PI 3-kinase beta (Homo sapiens, UniProt P42338). Kind of data set: Kinase Glo Luminescent Kinase Assay (Kglo), assay B. Particulars: read-out: Assay B PI3Kβ IC50. The class given is biochemical.
Another data set addresses mTOR (Homo sapiens, UniProt P42345). Kind of data set: Lanthascreen kinase binding assay, assay G. Particulars: read-out: Assay G mTOR IC50.
The test system of data set [10] is IL-8-induced neutrophil shape change in human whole blood. Briefly: Whole blood neutrophil shape change assay (L). Particulars: Homo sapiens, Neutrophil, IL-8, human whole blood, read-out: Assay L WBSC IC50. In kind it is cell-based.
The target in data set [11] is T1, PI 3-kinase gamma. Kind of data set: Cellular U937 AKT assay K2 (HTRF). As to conditions: U937 cells, K2 format; read-out: Assay K2 PI3Kγ IC50. The class given is cell-based.
Method: In assays K1 and K2, the compounds were tested for their ability to inhibit the production of phosphorylated AKT (Protein Kinase B) generated in a PI 3-kinase gamma isoform-dependent process in a U937 human cell line.
Cellular U937 AKT Assay for PI 3-Kinase Gamma (K2)
U937 cells are split every 3-4 days: 5×10^6 cells/flask (175 cm^2) in 40 ml.
Semi-automated preparation of cell lysates: Cells were resuspended in HBSS, seeded (200′000 cells/well/60 μl) into a 384-well plate and incubated in a humidified 37° C., 5% CO2 incubator for 1.5 hours. The compounds were diluted with HBSS and 40 μl were added to the starved cells (except for wells 24 I-P). […] The cells were then incubated for 30 minutes at 37° C. and 5% CO2. Stimulation occurred during 3 minutes by addition of 20 μl MIP1α (final 10 ng/ml, diluted in HBSS) in the incubator. Wells 24 A-H were only stimulated with HBSS.
The stimulation was then stopped by putting the cell plates on ice (filled with cold water). The cells were then centrifuged at 1200 rpm and 4° C. for 3 minutes.
80 μl of supernatant was removed. The cells were again centrifuged at 1200 rpm and 4° C. for 3 minutes. The supernatant was then removed by turning plates upside down and 30 μl of lysis buffer were added. The plate was incubated at room temperature for 30 minutes under shaking. 16 μl were then transferred to a ProxiPlate Plus 384-well. 4 μl of the master mix (each conjugate diluted 1:20 with detection reagent) were added to each well and the plate was kept in the dark at room temperature for 4 hours.
The target in data set [12] is T4, PI 3-kinase beta. Briefly: Cellular assay I1, p-Akt (S473) in Rat-1 cells, Surefire format. In kind it is cell-based. As to conditions: non-asterisked data: version I1 (Surefire format), Rat-1 cells; read-out: Assay I PI3Kβ IC50.
The target of data set [13] is T3, PI 3-kinase delta. Kind of data set: Cellular assay J2, p-AKT (Ser473) in Rat-1 cells, HTRF format. The class given is cell-based. Particulars: asterisked data: version J2 (HTRF format), read-out: Assay J PI3Kδ IC50.
Target sequence in this assay (O00329 whole entry): as the sequence (O00329 whole entry) above
Target sequence in this assay (Q63787 whole entry partner): as the sequence (Q63787 whole entry partner) above
Method: as §1, §2, §3
The target in data set [14] is T4, PI 3-kinase beta. Briefly: Cellular assay I2, p-AKT (Ser473) in Rat-1 cells, HTRF format. In kind it is cell-based. Particulars: asterisked data: version I2 (HTRF format), read-out: Assay I PI3Kβ IC50.
Method: as §1, §2, §3

pIC50: −log10 of the molar value. Where only a bound is given, the exact number is not on record here.

Vps34, sequence (Q8NEB9 whole entry, species assumed): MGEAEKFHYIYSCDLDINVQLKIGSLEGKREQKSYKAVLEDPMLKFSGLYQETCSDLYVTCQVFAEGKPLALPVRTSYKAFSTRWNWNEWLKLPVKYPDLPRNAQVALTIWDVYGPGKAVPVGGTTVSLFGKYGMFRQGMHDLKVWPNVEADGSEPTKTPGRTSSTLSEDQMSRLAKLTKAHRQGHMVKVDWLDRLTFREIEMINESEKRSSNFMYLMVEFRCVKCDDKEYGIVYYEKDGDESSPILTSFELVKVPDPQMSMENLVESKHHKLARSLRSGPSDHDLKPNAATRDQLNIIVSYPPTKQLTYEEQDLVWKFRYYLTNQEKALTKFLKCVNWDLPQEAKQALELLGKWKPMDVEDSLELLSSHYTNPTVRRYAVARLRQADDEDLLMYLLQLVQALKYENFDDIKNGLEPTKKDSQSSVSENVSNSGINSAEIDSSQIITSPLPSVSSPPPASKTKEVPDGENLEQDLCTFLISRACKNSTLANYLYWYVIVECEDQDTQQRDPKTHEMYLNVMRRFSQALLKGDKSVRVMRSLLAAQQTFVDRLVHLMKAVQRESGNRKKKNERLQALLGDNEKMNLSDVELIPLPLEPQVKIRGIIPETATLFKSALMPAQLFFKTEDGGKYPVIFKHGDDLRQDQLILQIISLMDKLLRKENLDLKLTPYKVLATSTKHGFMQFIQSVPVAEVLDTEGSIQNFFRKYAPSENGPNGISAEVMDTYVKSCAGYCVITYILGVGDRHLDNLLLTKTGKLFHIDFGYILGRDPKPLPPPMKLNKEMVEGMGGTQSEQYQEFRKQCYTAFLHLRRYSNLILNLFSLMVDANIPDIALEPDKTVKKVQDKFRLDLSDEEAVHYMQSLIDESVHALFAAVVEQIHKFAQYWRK
PI 4-kinase beta, sequence (Q9UBF8 whole entry): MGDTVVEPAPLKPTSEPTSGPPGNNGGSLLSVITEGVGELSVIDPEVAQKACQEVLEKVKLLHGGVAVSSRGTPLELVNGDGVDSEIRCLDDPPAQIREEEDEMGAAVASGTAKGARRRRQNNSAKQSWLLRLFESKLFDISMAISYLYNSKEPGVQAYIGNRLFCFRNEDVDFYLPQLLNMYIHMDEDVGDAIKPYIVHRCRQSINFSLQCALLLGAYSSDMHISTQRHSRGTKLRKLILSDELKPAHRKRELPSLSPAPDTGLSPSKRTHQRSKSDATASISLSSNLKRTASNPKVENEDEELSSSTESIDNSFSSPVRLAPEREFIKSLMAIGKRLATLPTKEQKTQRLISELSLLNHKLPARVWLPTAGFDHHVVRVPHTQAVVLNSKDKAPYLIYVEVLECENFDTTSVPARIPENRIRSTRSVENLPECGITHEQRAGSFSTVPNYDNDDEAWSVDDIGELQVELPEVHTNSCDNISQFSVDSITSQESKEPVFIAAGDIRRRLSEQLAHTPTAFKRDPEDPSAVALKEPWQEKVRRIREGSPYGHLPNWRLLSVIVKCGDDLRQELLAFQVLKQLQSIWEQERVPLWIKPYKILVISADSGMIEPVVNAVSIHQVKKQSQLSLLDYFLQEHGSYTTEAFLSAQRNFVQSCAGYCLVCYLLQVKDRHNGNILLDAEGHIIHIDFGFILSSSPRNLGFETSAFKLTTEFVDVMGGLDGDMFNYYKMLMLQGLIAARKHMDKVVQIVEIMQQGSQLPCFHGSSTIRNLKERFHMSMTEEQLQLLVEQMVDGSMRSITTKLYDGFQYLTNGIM
Method for mTOR: Lanthascreen™ Kinase Binding Assay for mTOR (G)
Binding of an inhibitor to the kinase competes for binding with the tracer, resulting in a loss of FRET.
50 nL of compound dilutions were dispensed onto white 384-well small volume polystyrene plate.

Take `Cc1ncc(-c2nc(-c3cc(S(=O)(=O)NC[C@H]4CCCO4)ccc3C)cnc2N)s1` (single isomer, unassigned) [Example 45.6a, (R)-3-(5-Amino-6-(2-methylthiazol-5-yl)pyrazin-2-yl)-4-methyl-N-((tetrahydrofuran-2-yl)methyl)benzenesulfonamide or (S)-3-(5-Amino-6-(2-methylthiazol-5-yl)pyrazin-2-yl)-4-methyl-N-((tetrahydrofuran-2-yl)methyl)benzenesulfonamide]: the pIC50 (usually the negative decadic logarithm of the IC50, by convention in mol/L) is 8.05 at PI 3-kinase gamma [1], 7.15 on PI 3-kinase alpha [2], 5.39 on PI 4-kinase beta and 6.09 on PI 3-kinase alpha [4]. In addition, in data set [3], the “Assay M RLM CI(int)” value was determined as 228 µL/min/mg.
As for `Cc1ncc(-c2nc(-c3cc(S(=O)(=O)NC[C@H]4CCCO4)ccc3C)cnc2N)s1` (single isomer, unassigned) [Example 45.6b, (R)-3-(5-Amino-6-(2-methylthiazol-5-yl)pyrazin-2-yl)-4-methyl-N-((tetrahydrofuran-2-yl)methyl)benzenesulfonamide or (S)-3-(5-Amino-6-(2-methylthiazol-5-yl)pyrazin-2-yl)-4-methyl-N-((tetrahydrofuran-2-yl)methyl)benzenesulfonamide], the pIC50 on PI 3-kinase gamma [1] is 7.38; at PI 3-kinase alpha [2], 6.42; at PI 4-kinase beta, less than 5.00; on PI 3-kinase alpha [4] it was 5.75. Further, in data set [3], the “Assay M RLM CI(int)” value came out at 237 µL/min/mg.
On to `Cc1ccc(S(=O)(=O)NCC2(C)COC2)cc1-c1cnc(N)c(-n2cncn2)n1` [Example 29, 3-(5-Amino-6-[1,2,4]triazol-1-yl-pyrazin-2-yl)-4-methyl-N-(3-methyl-oxetan-3-ylmethyl)-benzenesulfonamide], for which the negative-log IC50 (pIC50) at Vps34 is less than 5.04; on PI 3-kinase alpha [5] it was 5.33; on PI 3-kinase delta [6], 5.18; at PI 3-kinase gamma [7], 6.69; at PI 3-kinase gamma [1], 8.05; at PI 3-kinase delta [8] it was 6.04. The negative-log IC50 (pIC50) at PI 3-kinase beta [9] is 5.17; on mTOR it was less than 5.04; on PI 3-kinase alpha [2] it was 5.89; on PI 4-kinase beta it was 5.28; in [10] it was 6.02; on PI 3-kinase gamma [11] it was 6.50. Moreover, on PI 3-kinase beta [12], the negative logarithm of the IC50 (pIC50) is 5.09. Further, in data set [3], the “Assay M RLM CI(int)” value came out at 62 µL/min/mg.
With `Cc1ncc(-c2nc(-c3cc(S(=O)(=O)NCC4CCCCO4)ccc3C)cnc2N)s1` (stereo not shown) [Example 45.4, 3-(5-Amino-6-(2-methylthiazol-5-yl)pyrazin-2-yl)-4-methyl-N-((tetrahydro-2H-pyran-2-yl)methyl)benzenesulfonamide], the pIC50 on Vps34 was 5.52; at PI 3-kinase delta [13], 6.24; at PI 3-kinase gamma [1], 8.05; at PI 3-kinase delta [8], 7.00; on PI 3-kinase beta [9], 6.06; at PI 3-kinase beta [14], 5.67. The pIC50 is 6.96 at PI 3-kinase alpha [2], 5.74 at PI 4-kinase beta and 5.91 on PI 3-kinase alpha [4]. In data set [3], the “Assay M RLM CI(int)” value came to 502 µL/min/mg.
Consider `Cc1ncc(-c2nc(-c3cc(S(=O)(=O)NCC4(CO)CCOCC4)ccc3C)cnc2N)s1` [Example 45.9, 3-(5-Amino-6-(2-methylthiazol-5-yl)pyrazin-2-yl)-N-((4-(hydroxymethyl)tetrahydro-2H-pyran-4-yl)methyl)-4-methylbenzenesulfonamide], for which the pIC50 on PI 3-kinase delta [13] is 6.55; on PI 3-kinase gamma [1], 7.41; at PI 3-kinase delta [8] it was 7.00; on PI 3-kinase beta [9], 6.49; at PI 3-kinase beta [14], 6.06; on PI 3-kinase alpha [2] it was 7.52. In addition, the figures for the pIC50 on PI 4-kinase beta, on PI 3-kinase gamma [11] and at PI 3-kinase alpha [4] were 5.31, 7.48 and 6.46, respectively. For the same molecule, in data set [3], the “Assay M RLM CI(int)” value came to 83 µL/min/mg.
`CCONS(=O)(=O)c1ccc(C)c(-c2cnc(N)c(-n3cncn3)n2)c1` [Example 112, 3-(5-Amino-6-(1H-1,2,4-triazol-1-yl)pyrazin-2-yl)-N-ethoxy-4-methylbenzenesulfonamide]: the negative logarithm of the IC50 (pIC50) was less than 5.00 on Vps34; 6.10 at PI 3-kinase alpha [5]; 6.51 at PI 3-kinase delta [6]; 7.02 on PI 3-kinase gamma [7]; 7.72 at PI 3-kinase gamma [1]; 6.30 at PI 3-kinase delta [8]. Further, the pIC50 was 5.48 on PI 3-kinase beta [9]; 5.20 at mTOR; 6.07 at PI 3-kinase alpha [2]; 5.50 on PI 4-kinase beta; 6.23 in data set [10]; 6.76 on PI 3-kinase gamma [11]. At PI 3-kinase beta [12], the pIC50 was 5.94. The “Assay M RLM CI(int)” value in [3] was determined as 62 µL/min/mg.
Consider `Cc1ncc(-c2nc(-c3cc(S(=O)(=O)NCCCO)c(F)cc3C)cnc2N)s1` [Example 113, 5-(5-Amino-6-(2-methylthiazol-5-yl)pyrazin-2-yl)-2-fluoro-N-(3-hydroxypropyl)-4-methylbenzenesulfonamide], for which the negative-log IC50 (pIC50) on Vps34 was 6.33; on PI 3-kinase alpha [5] it was 5.97; at PI 3-kinase delta [6] it was 5.97; on PI 3-kinase gamma [7] it was 7.26; at PI 3-kinase gamma [1], 8.10; at PI 3-kinase delta [8] it was 6.49. Further, the pIC50 on PI 3-kinase beta [9] was 6.36; at mTOR it was 5.46; at PI 3-kinase alpha [2], 7.30; at PI 4-kinase beta, 5.83; in data set [10], 6.84; on PI 3-kinase gamma [11], 7.62. Besides, on PI 3-kinase beta [12], the pIC50 is 5.45. Moreover, in data set [3], the “Assay M RLM CI(int)” value is 39 µL/min/mg.
As for `Cc1cc(F)c(S(=O)(=O)NCC(C)(C)O)cc1-c1cnc(N)c(-n2cncn2)n1` [Example 122, 5-(5-Amino-6-(1H-1,2,4-triazol-1-yl)pyrazin-2-yl)-2-fluoro-N-(2-hydroxy-2-methylpropyl)-4-methylbenzenesulfonamide], the pIC50 at Vps34 is less than 5.00; at PI 3-kinase alpha [5] it was 5.64; on PI 3-kinase delta [6] it was 5.92; on PI 3-kinase gamma [7] it was 6.82; at PI 3-kinase gamma [1], 7.07; at PI 3-kinase delta [8], 5.80. Also, the pIC50 at PI 3-kinase beta [9] is 5.66; at mTOR it was 5.18; at PI 3-kinase alpha [2], 6.31; on PI 4-kinase beta, 5.72; in data set [10] it was 6.01; at PI 3-kinase gamma [11] it was 6.53. In addition, the negative logarithm of the IC50 (pIC50) at PI 3-kinase beta [12] was 5.83. In addition, the “Assay M RLM CI(int)” value in data set [3] is 26 µL/min/mg.
For `Cc1ncc(-c2nc(-c3cc(S(=O)(=O)NCC(C)(C)O)ccc3C)cnc2N)o1` [Example 126, 3-(5-Amino-6-(2-methyloxazol-5-yl)pyrazin-2-yl)-N-(2-hydroxy-2-methylpropyl)-4-methylbenzenesulfonamide], the negative-log IC50 (pIC50) was less than 5.00 on Vps34; 5.37 on PI 3-kinase delta [13]; 7.24 on PI 3-kinase gamma [1]; 6.00 at PI 3-kinase delta [8]; 5.51 on PI 3-kinase beta [9]; less than 5.00 on PI 3-kinase beta [14]. The pIC50 at PI 3-kinase alpha [2] was 6.55; on PI 4-kinase beta, less than 5.00; at PI 3-kinase alpha [4], 5.40. Also, the “Assay M RLM CI(int)” value in [3] turned out to be 20 µL/min/mg.
On to `Cc1ccc(S(=O)(=O)NCC2(O)CCCC2)cc1-c1cnc(N)c(-n2cncn2)n1` [Example 127.35], for which the pIC50 was less than 5.00 at Vps34; less than 5.00 at PI 3-kinase alpha [5]; less than 5.00 on PI 3-kinase delta [6]; 7.07 at PI 3-kinase gamma [7]; 7.30 at PI 3-kinase gamma [1]; 6.09 on PI 3-kinase delta [8]. In addition, the pIC50 at PI 3-kinase beta [9] was 5.96; at mTOR it was 5.15; on PI 3-kinase alpha [2], 6.48; on PI 4-kinase beta it was 5.20; in data set [10], 6.07; at PI 3-kinase gamma [11] it was 6.41. Moreover, the negative logarithm of the IC50 (pIC50) at PI 3-kinase beta [12] is 5.69. Also, the “Assay M RLM CI(int)” value in data set [3] worked out at 202 µL/min/mg.
As to `Cc1ccc(S(=O)(=O)NC2CC2)cc1-c1cnc(N)c(-n2cncn2)n1` [Example 127.53], the pIC50 was less than 5.00 at Vps34; 6.19 on PI 3-kinase alpha [5]; 5.19 at PI 3-kinase delta [6]; 6.76 at PI 3-kinase gamma [7]; 7.60 on PI 3-kinase gamma [1]; 5.85 on PI 3-kinase delta [8]. Besides, the negative-log IC50 (pIC50) at PI 3-kinase beta [9] is 5.85; at mTOR it was 5.41; on PI 3-kinase alpha [2], 6.37; at PI 4-kinase beta it was 5.77; in data set [10] it was 5.73; at PI 3-kinase gamma [11], 6.70. In addition, the pIC50 on PI 3-kinase beta [12] was less than 5.52. Also, the “Assay M RLM CI(int)” value in data set [3] is 129 µL/min/mg.
